Test results as given in patent US8470859B2, “Iminopyridine derivative and use thereof” (Takeda Pharmaceutical Company Limited, priority 2006, dated 2013).

Key:
[1] = test system: isolated bladder muscle of BOO model rat; test: Effect of SNAP-8719 on α1 receptor stimulation-induced contraction of isolated bladder muscle of bladder outlet obstruction (BOO) model rat; details: phenylephrine 3 μmol/L, average value ± standard error, N=5-8
Method: Effect of SNAP-8719 on α1 Receptor Stimulation-Induced Contraction of Isolated Bladder Muscle of Bladder Outlet Obstruction (BOO) Model Rat
(§1) • (i) Seven-week-old male Wistar rats (CLEA Japan, Inc., Tokyo) were used. BOO rat was prepared according to publications (Hashimoto T, Nagabukuro H and Doi T: Effects of the selective acetylcholinesterase inhibitor TAK-802 on the voiding behavior and bladder mass increase in rats with partial bladder outlet obstruction. J Urol. 174: 1137-41., 2005.). After pentobarbital (50 mg/kg i.p., Dainippon Sumitomo Pharma Co., Ltd., Osaka) anesthesia, a lower middle abdominal incision was made to expose the bladder. The prostate was detached, the urethra was ligated along with a glass rod having an outer diameter of 1.2 mm, and the glass rod was removed to prepare partial obstruction of the urethra. After the surgery, the abdomen was sutured, and penicillin (2000 IU/rat, penicillin G potassium, MEIJI SEIKA KAISHA, LTD., Tokyo) was subcutaneously administered. An animal after 2 to 4 weeks from obstruction surgery was used. • (ii) Contractile Responses of Isolated Bladder Muscle (1) Preparation of Bladder Muscle Specimen
BOO model rat was sacrificed by decaptation, and the bladder was isolated. Muscle strips (length 7-10 mm in the longitudinal direction, width about 3 mm) were prepared from the bladder except bladder trigone (4-6 specimen from each bladder).
(§2) The prepared bladder muscle specimens were hung in a Magnus bath aerated with 95% O2-5% CO2 gas and filled with modified Krebs solution. The contraction tension was measured by an isometric strain transducer (TSD125C, Biopac systems, Santa Barbara, Calif., USA) and recorded in the hard disc of PC (ThinkCentre, IBM, USA) via an amplifier (DA100C, Biopac systems) and a multichannel data analysis apparatus (MP100A-CE, Biopac systems). For uptaking the data, a dedicated software (Acqknowledge 3.8.1., Biopac systems) was used and the sampling interval was set to 0.2 second (5 Hz). The specimens were hung with a load of about 1 g and, after an equilibration time of 1 hr or longer, the following experiment was performed.
The specimens were treated with phenylephrine (3 μmol/L) to induce contraction.
The standard deviation was measured for 5 minutes immediately before phenylephrine treatment and for 5 minutes after the contraction was stabilized after treatment (immediately before completion of the about 20 min observation time) and the difference was taken as 100%. The standard deviation was measured for 5 minutes immediately before completion of observation time (30 min) after the SNAP-8719 treatment, and the inhibition rate was calculated. In the vehicle treatment group, the variation rate of phenylephrine-induced contraction was calculated every time the specimens were repeatedly treated with the vehicle, and the inhibition rate of SNAP-8719 was adjusted based on the variation rate of the corresponding vehicle treatment group. • (iii) Action of SNAP-8719 on α1 Receptor Stimulation-Induced Contraction of Isolated Bladder Muscle of BOO Model Rat
After the phenylephrine-induced contraction was stabilized, the specimens were treated with the vehicle 0-4 times at 30 min intervals, treated with SNAP-8719 (1 μmol/L), and the variation in the contraction tension in 30 min was observed. […] Therefore, the evaluation by cumulative treatment with a drug was performed for up to 3 concentrations at 30 min intervals.

[2] = test system: isolated bladder muscle of BOO model rat; test: Effect of various drugs on α1 receptor stimulation-induced contraction of isolated bladder muscle of bladder outlet obstruction (BOO) model rat; details: phenylephrine 3 μmol/L
Method: Effect of Various Drugs on α1 Receptor Stimulation-Induced Contraction of Isolated Bladder Muscle of Bladder Outlet Obstruction (BOO) Model Rat
as §1
BOO model rat was sacrificed by decaptation, and the bladder was isolated. Muscle strips (length 7-10 mm, width about 3 mm) in the longitudinal direction were prepared from the bladder except bladder trigone (4-6 specimen from each bladder).
as §2
The specimens were treated with phenylephrine (3 μmol/L) to induce contraction. After the contractile response was stabilized (>20 min), the specimens were cumulatively treated 3 times with a drug at a 10-fold common ratio and 30 min intervals, and the variation in the tension was observed.
The variation in the tension due to α1 receptor stimulation was evaluated by the two methods shown below [average method and standard deviation (Stddev) method].
The average tension for one minute was measured immediately before phenylephrine treatment and after the contraction was stabilized after the treatment (immediately before completion of about 20 min observation time), and the difference was taken as 100%. The average tension for one minute was measured immediately before completion of observation time (30 min) after treatment with a drug at each concentration, and the inhibition rate of the drug at each concentration was calculated. In the vehicle treatment group, the variation rate of phenylephrine-induced contraction was calculated every time the specimens were treated 3 times with lo the solvent, and the inhibition rate of the drug at each concentration was adjusted based on the variation rate of the corresponding vehicle treatment group. The concentration (IC50) necessary for inhibiting the average tension by 50% by preclinical package (SAS Institute Japan, Ver. 5.0) was calculated based on the inhibition rate at each concentration.
The standard deviation was measured immediately before phenylephrine treatment and for 5 min after the contraction was stabilized after treatment (immediately before completion of the about 20 min observation time) and the difference was taken as 100%. […]

C[C@H](CN1CCN(c2cc(F)c(F)cc2F)CC1)N1C(=O)CC2(CCCC2)CC1=O [SNAP-8719]
inhibition rate of phenylephrine-induced contraction (standard deviation method, vehicle adjusted value) ([1]; SNAP-8719 1 μmol/L after treatment with vehicle 0 times): 51.2±12.4%
inhibition rate of phenylephrine-induced contraction (standard deviation method, vehicle adjusted value) ([1]; SNAP-8719 1 μmol/L after treatment with vehicle 1 time at 30 min intervals): 47.4±9.1%
inhibition rate of phenylephrine-induced contraction (standard deviation method, vehicle adjusted value) ([1]; SNAP-8719 1 μmol/L after treatment with vehicle 2 times at 30 min intervals): 66.6±8.7%
inhibition rate of phenylephrine-induced contraction (standard deviation method, vehicle adjusted value) ([1]; SNAP-8719 1 μmol/L after treatment with vehicle 3 times at 30 min intervals): 36.3±9.4%
inhibition rate of phenylephrine-induced contraction (standard deviation method, vehicle adjusted value) ([1]; SNAP-8719 1 μmol/L after treatment with vehicle 4 times at 30 min intervals): 8.7±32.3%
effect on the rhythmic contractile response induced by phenylephrine (average method and Stddev method), in words [2]: inhibited
IC50 ([2]; concentration inhibiting the average tension by 50%, cumulative treatment, 3 concentrations, 30 min intervals, read-out: Inhibitory effect on phenylephrine-induced contraction IC50 (average method)): 0.36 µM
Inhibitory effect on phenylephrine-induced contraction IC30 (stddev method) ([2]; concentration inhibiting the sustained, rhythmic contractile responses by 30%, cumulative treatment, 3 concentrations, 30 min intervals): 0.18 µM
